Consider 16 compounds from PubChem BioAssay AID2020 (NMMLSC, 2009).

Molecules are shown by their SMILES. Activity calls are given as the source filed them.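 The calls were made as follows: active = EC50 at or below 30 µM together with a response span of at least a set limit; inactive = the rest.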

The assay has as its target Cell division control protein 42 homolog (Homo sapiens) (UniProt P60953). The experiment in a line: activated Cdc42 mutant GTP binding inhibitors, SAR follow-up, biochemical, pyrazoline analogs, multiplex bead flow cytometry, Ki (AID 2020). The conditions noted are these: bead-based flow cytometry, Bodipy-FL-GTP binding; for Ki: measured here: Ki calculated from EC50.

Chain of Cell division control protein 42 homolog (Homo sapiens) (P60953 whole entry, looked up, change not shown): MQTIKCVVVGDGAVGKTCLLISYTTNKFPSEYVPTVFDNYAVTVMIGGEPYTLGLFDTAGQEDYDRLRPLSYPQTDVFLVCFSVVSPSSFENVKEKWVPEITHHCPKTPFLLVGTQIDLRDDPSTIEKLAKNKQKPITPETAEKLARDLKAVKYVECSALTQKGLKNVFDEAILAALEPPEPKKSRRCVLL

As for `COc1ccc(C2CC(c3ccc(Cl)cc3)=NN2c2ccccc2)cc1OC` (configuration not stated), the EC50 was > 30 µM (inactive).
Same read-out and setting: under `CN(C)c1ccc(C2CC(c3ccc(Br)cc3)=NN2c2ccccc2)cc1` (configuration not stated) stands > 30 µM (inactive); under `Cc1ccc(-c2cc(C(F)(F)F)nn2-c2ccc(S(N)(=O)=O)cc2)cc1`, > 30 µM (inactive); under `O=S(=O)(c1ccc(N2N=C(c3ccccc3)CC2c2ccccc2)cc1)C(F)F` (configuration not stated), > 30 µM (inactive).
Same read-out and setting: for `COc1ccc(C2CC(c3ccc(N(C)C)cc3)=NN2c2ccc(S(N)(=O)=O)cc2)cc1` (configuration not stated) the value was > 30 µM (inactive).
As for `NS(=O)(=O)c1ccc(N2N=C(c3ccccc3)CC2c2cccc(Cl)c2)cc1` (configuration not stated), the EC50 was 3.62 µM and the Ki is 0.56 µM.
For `CC(=O)Oc1ccc(C2=NN(c3ccccc3)C(c3ccccc3)C2)cc1` (configuration not stated), the EC50 entry was “inactive” and the Ki is 3.77 µM.
The like results for `COc1ccc(C2CC(c3ccccc3C)=NN2c2ccc(S(N)(=O)=O)cc2)cc1` (configuration not stated) were, in that order, “inactive” and 0.36 µM.
With `COc1ccc(C2CC(c3ccccc3Br)=NN2c2ccc(S(N)(=O)=O)cc2)cc1` (configuration not stated), the EC50 is > 30 µM (inactive).
In the case of `NS(=O)(=O)c1ccc(N2N=C(c3ccccc3)CC2c2cccc(Br)c2)cc1` (configuration not stated), the EC50 is 3.67 µM and the Ki was 0.57 µM.
`COc1ccc(C2CC(c3ccc(C)cc3)=NN2c2ccc(S(N)(=O)=O)cc2)cc1` (configuration not stated): the EC50 result is “inactive” and the Ki is 0.37 µM.
On to `Fc1ccccc1C1CC(c2ccc(Br)cc2)=NN1c1ccc(Br)cc1` (configuration not stated), for which the EC50 was > 30 µM (inactive).
Same read-out and setting: for `CN(C)c1ccc(C2CC(c3ccc(F)cc3)=NN2c2ccccc2)cc1` (configuration not stated) the value was > 30 µM (inactive); for `Fc1ccc(C2=NN(c3cccc(Br)c3)C(c3ccccc3)C2)cc1` (configuration not stated), > 30 µM (inactive); for `NS(=O)(=O)c1ccc(N2N=C(c3ccc(Br)cc3)CC2c2ccc(F)cc2)cc1` (configuration not stated), > 30 µM (inactive).
As for `NS(=O)(=O)c1ccc(N2N=C(c3ccc(Cl)cc3)CC2c2ccccc2)cc1` (configuration not stated), the EC50 is 7.11 µM and the Ki was 1.1 µM.
